For experiment [1], the target named is T1, human adenosine A3 receptor (Homo sapiens, UniProt P0DMS8).
T1 construct: expressed in transfected cells; host or cells: CHO cells (membrane preparation)
T1 sequence (P0DMS8 1-318): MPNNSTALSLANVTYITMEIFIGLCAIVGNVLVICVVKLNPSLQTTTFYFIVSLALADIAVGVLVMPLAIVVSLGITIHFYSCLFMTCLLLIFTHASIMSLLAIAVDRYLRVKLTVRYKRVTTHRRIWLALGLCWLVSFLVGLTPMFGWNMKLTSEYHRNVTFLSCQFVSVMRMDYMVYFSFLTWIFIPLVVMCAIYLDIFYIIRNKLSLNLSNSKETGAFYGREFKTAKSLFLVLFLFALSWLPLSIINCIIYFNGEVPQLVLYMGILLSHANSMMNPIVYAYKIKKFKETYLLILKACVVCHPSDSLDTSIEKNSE
Briefly: Competition binding, [125I]-ABMECA, hA3 CHO membranes. To be noted: mean ± SEM.

Experiment [2] relates to Female CD1 mice. Nature of the experiment: Writhing test (acetic acid-induced abdominal constrictions). In kind it is in vivo. On the procedure:
(§1) Female CD1 mice (22-24 g) were obtained from Charles River (Milano, Italia). The animals were kept under standard environmental temperature conditions (22±2° C.) and under moisture-controlled conditions with 12 hours light/dark cycle and food and water ad libitum. The animals were acclimated to the laboratory settings for at least 1 hour before testing and were used only once throughout the experiments. All the procedures used in the present study were carried out in accordance with the European Communities Council Directives (86/609/EEC) and the National Laws and Policies (D.L.116/92) after authorization from the Italian Ministry for Health (4/2014-B). In addition, the experimental procedures were in agreement with the current guidelines for the care of laboratory animals and the ethical guidelines for investigations of experimental pain in conscious animals (Couto M. Methods Mol Biol 2011; 770:579-599).
The acetic acid-induced writhing response was performed after intraperitoneal injection of 10 ml/Kg of 0.6% acetic acid solution. The response to the abdominal constrictions induced by acetic acid was evaluated after the intraperitoneal injection of 10 ml/kg of a 0.6% solution of acetic acid. The compounds under evaluation were dissolved in DMSO and then diluted in a saline solution. The carrier consists of saline solution and 5% of DMSO. A writhe is indicated by stretching of the abdomen followed by the extension of the hind limbs. The animals (8 mice per group) were placed singly in a glass cylinder and the number of writhing episodes of abdominal contractions was counted in a 30 minutes period. The compounds were administered intraperitoneally 15 minutes before injection of acetic acid solution.
(§2) The statistical analysis of the data was performed using ANOVA followed by Dunnett's test. […] KH and KL were obtained by using a two sites binding model and Graph PAD Prism (San Diego, Calif., USA). The values of IC50 obtained in the cAMP assays were calculated by non-linear regression analysis using the equation for a sigmoid concentration-response curve. All data are expressed as the mean±SEM of four independent experiments each performed in duplicate for in vitro assays and n=8-10 mice/group for in vivo assays.
A general note: In writhing tests, fewer writhes than in controls are read as antinociception.

For experiment [3], the system named is Female CD1 mice. Nature of the experiment: Warm-water tail immersion test. The format is in vivo. To be noted: intraperitoneal. The method, then: as §1
The warm-water tail immersion assay was performed using a water thermostated bath at a temperature maintained at 52° C. The compounds under evaluation were dissolved in DMSO and then diluted in saline solution. The carrier consists of saline solution and 5% of DMSO. Before intraperitoneally injecting the compound, the natural time of response of the mice was determined and the distal part of the tail was then immersed in the thermostated bath. The latency in responding to the heat stimulus with a vigorous flexion of the tail was measured by means of a manual stopwatch. A 20 seconds maximum cut-off time was imposed to prevent tissue damage. The latency of the tail withdrawal was then tested 15 minutes after injection of the compound.
as §2

The target in experiment [4] is T2, human adenosine A1 receptor (Homo sapiens, UniProt P30542).
T2 sequence (P30542 1-326): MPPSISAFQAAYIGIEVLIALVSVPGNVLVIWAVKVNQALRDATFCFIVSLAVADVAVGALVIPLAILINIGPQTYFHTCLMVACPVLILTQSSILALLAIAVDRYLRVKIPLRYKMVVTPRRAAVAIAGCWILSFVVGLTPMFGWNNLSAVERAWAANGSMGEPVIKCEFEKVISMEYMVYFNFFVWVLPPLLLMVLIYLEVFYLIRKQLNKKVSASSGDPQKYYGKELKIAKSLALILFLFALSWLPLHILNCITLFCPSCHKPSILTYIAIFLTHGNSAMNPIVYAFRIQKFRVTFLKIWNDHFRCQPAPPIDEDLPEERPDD
Briefly: Competition binding, [3H]-DPCPX, hA1 CHO membranes. To be noted: read-out: Receptor hA1 Ki, mean ± SEM.

Experiment [5] has as its target human adenosine A2A receptor (Homo sapiens, UniProt P29274). Briefly: Competition binding, [3H]-ZM 241385, hA2A CHO membranes.
In experiment [6] the target is T3, human adenosine A2B receptor (Homo sapiens, UniProt P29275).
T3 sequence (P29275 1-332): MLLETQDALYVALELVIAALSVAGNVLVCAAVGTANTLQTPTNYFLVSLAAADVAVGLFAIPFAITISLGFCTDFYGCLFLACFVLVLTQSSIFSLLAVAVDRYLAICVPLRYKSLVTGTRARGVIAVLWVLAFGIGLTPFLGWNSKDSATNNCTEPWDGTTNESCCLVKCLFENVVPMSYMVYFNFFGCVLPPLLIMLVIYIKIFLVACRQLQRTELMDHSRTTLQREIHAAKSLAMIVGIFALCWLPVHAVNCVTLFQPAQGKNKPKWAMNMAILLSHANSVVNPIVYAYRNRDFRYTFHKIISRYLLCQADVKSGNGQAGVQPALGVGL
Briefly: cAMP assay, inhibition of NECA-stimulated cAMP levels in hA2B CHO cells. The conditions noted are these: read-out: Receptor hA2B IC50; cAMP stimulated by NECA (100 nM); mean ± SEM. In general terms: Cyclic AMP is a second messenger, typically raised through Gs and lowered through Gi signalling.

human adenosine A2A receptor, sequence (P29274 whole entry): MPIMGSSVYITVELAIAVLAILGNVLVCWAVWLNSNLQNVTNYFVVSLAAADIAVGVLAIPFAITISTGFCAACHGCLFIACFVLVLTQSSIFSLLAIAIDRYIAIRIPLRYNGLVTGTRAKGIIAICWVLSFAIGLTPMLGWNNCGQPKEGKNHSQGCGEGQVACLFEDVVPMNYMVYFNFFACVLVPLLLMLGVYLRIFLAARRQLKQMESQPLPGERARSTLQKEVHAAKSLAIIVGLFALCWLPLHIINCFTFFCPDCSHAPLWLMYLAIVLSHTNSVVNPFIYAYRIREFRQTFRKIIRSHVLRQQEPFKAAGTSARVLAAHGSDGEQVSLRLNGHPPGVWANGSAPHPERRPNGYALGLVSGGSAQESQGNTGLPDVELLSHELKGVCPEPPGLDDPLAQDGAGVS

The term Ki denotes a dissociation constant, usually derived from enzyme kinetics or from competition with a known ligand. Usually ED50 stands for the midpoint of the dose-response relation. Read a high ED50 as weaker potency. Usually IC50 stands for the concentration that inhibits the measured activity by half. As to `COc1ccccc1CNc1nc(N)c2nc(-c3ccco3)sc2n1` [Compound 1, 2-(furan-2-yl)-N^5-(2-methoxybenzyl)[1,3]thiazolo[5,4-d]pyrimidin-5,7-diamine], the Ki is 36 ± 3 nM in experiment [1], 3.54 ± 0.32 nM in experiment [4] and 6.45 ± 0.57 nM in experiment [5]. The ED50 with Female CD1 mice [2] (Mus musculus, ip, intraperitoneal, 15 minutes before acetic acid) was determined as 0.0328 ± 0.0021 mg/kg; in the experiment on Female CD1 mice [3] (Mus musculus, ip, 0.25 h, 52° C., 15 minutes after injection), 0.134 ± 0.011 mg/kg. Further, the “Dose-response curve, Writhing Test” value in the experiment with Female CD1 mice [2] (P<0.001, one-way ANOVA) is “dose-dependent effect”. In addition, in the experiment on Female CD1 mice [2] (intraperitoneal), the “ED50 times lower than ZM 241385, Writhing Test” value is “approximately 42 times”. The “ED50 times lower than morphine, Writhing Test” value with Female CD1 mice [2] (intraperitoneal) is recorded as 3.75 times. Besides, the “Anti-nociceptive activity, tail immersion test” value with Female CD1 mice [3] is given as “highest analgesic activity”. Moreover, the “Minimum effective dose, tail immersion test” value in the experiment on Female CD1 mice [3] was 0.01 mg/kg. Further, in experiment [6], the IC50 turned out to be 313 ± 29 nM.

The values are drawn from US20200308192A1, “NOVEL THIAZOLO[5,4-D]PYRIMIDINE DERIVATIVES AS INVERSE AGONISTS OF A2A ADENOSINE RECEPTORS” (Universita degli Studi di Ferrara, priority 2016, published 2020).
